According to patent US20250171438A1 (Agios Pharmaceuticals, Inc., priority 2022, published 2025):

target: T1, human PAH with the R408W mutation (Homo sapiens, UniProt P00439, R408W); assay: Cell Based Phenylalanine Flux Assay; conditions: A375 cells expressing human R408W PAH; 24 hrs with compound; 13C-Tyrosine by LC-MS; average where tested multiple times; read-out: AC50
T1 construct: expressed in transfected cells
T1 sequence (P00439 1-452 R408W): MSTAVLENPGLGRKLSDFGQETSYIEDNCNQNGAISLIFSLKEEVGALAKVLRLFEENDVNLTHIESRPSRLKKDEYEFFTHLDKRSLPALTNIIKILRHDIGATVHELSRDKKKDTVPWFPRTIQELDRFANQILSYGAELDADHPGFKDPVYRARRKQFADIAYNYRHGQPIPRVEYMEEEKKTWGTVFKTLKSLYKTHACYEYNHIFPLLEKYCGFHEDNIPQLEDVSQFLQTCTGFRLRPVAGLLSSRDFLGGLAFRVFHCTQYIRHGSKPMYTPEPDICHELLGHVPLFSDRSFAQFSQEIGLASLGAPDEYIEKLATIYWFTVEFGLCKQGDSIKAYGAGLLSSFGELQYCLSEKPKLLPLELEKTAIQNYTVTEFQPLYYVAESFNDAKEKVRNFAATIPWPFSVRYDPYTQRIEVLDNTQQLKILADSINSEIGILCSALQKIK

| AC50 [µM] | SMILES |
| --- | --- |
| > 5 | CC(=O)N1CCc2[nH]cnc2C1c1nc2ccccc2s1 (centres unmarked) |
| > 5 | O=C(Cc1nncs1)N1CCc2[nH]cnc2C1c1nc2ccccc2s1 (centres unmarked) [listing 1 of 2 here] |
| > 5 | Cc1nnc(CCC(=O)N2CCc3[nH]cnc3C2c2nc3c(F)cccc3s2)s1 (centres unmarked) [listing 1 of 2 here] |
| > 5 | Cc1nnc(CCC(=O)N2CCc3[nH]cnc3C2c2nc3cc(F)ccc3s2)s1 (centres unmarked) [listing 1 of 2 here] |
| > 5 | O=C(CCc1nccs1)N1CCc2[nH]cnc2C1c1nc2cc(F)ccc2s1 (centres unmarked) [listing 1 of 2 here] |
| > 5 | O=C(Cc1nccs1)N1CCc2[nH]cnc2C1c1nc2cc(F)ccc2s1 (centres unmarked) [listing 1 of 2 here] |
| > 5 | O=C(Cc1nc(C(F)(F)F)cs1)N1CCc2[nH]cnc2C1c1nc2ccc(Cl)cc2[nH]1 (centres unmarked) |
| > 5 | O=C(CCc1nccs1)N1CCc2[nH]cnc2C1c1nc2ccc(Cl)cc2s1 (centres unmarked) [listing 1 of 2 here] |
| > 5 | O=C(Cc1nc(C(F)(F)F)cs1)N1CCc2[nH]cnc2C1c1nc2ccc(F)cc2[nH]1 (centres unmarked) [listing 1 of 2 here] |
| > 5 | O=C(Cc1nccs1)N1CCc2[nH]cnc2C1c1nc2ccc(F)cc2[nH]1 (centres unmarked) [listing 1 of 2 here] |
| > 5 | Cc1nnc(CCC(=O)N2CCc3[nH]cnc3C2c2nc3cccc(F)c3s2)s1 (centres unmarked) [listing 1 of 2 here] |
| 1 to 5 | O=C(Cc1nc2ccccc2s1)N1CCc2[nH]cnc2C1c1nc2ccccc2s1 (centres unmarked) |
| > 5 | Cc1nnc(N2CCc3[nH]cnc3C2c2nc3ccccc3[nH]2)o1 (centres unmarked) |
| > 5 | O=C(c1nc2ccc(F)cc2s1)N1CCc2[nH]cnc2C1c1nc2ccccc2s1 (centres unmarked) [listing 1 of 2 here] |
| > 5 | O=C(c1ccon1)N1CCc2[nH]cnc2C1c1nc2ccccc2s1 (centres unmarked) [listing 1 of 2 here] |
| > 5 | O=C(c1ccsn1)N1CCc2[nH]cnc2C1c1nc2ccccc2s1 (centres unmarked) [listing 1 of 2 here] |
| > 5 | O=C(c1nc2ccccc2s1)N1CCc2[nH]cnc2C1c1nc2cc(F)ccc2s1 (centres unmarked) [listing 1 of 2 here] |
| > 5 | O=C(c1nc2ccccc2s1)N1CCc2[nH]cnc2C1c1nc2c(F)cccc2s1 (centres unmarked) [listing 1 of 2 here] |
| > 5 | O=C(c1ncco1)N1CCc2[nH]cnc2C1c1nc2ccccc2s1 (centres unmarked) [listing 1 of 2 here] |
| > 5 | O=C(c1cnn2cccc(F)c12)N1CCc2[nH]cnc2C1c1nc2ccccc2s1 (centres unmarked) [listing 1 of 2 here] |
| > 5 | COc1ccc2c(C(=O)N3CCc4[nH]cnc4C3c3nc4ccccc4s3)cnn2c1 (centres unmarked) [listing 1 of 2 here] |
| > 5 | O=C(c1cc2ccccn2c1)N1CCc2[nH]cnc2C1c1nc2ccccc2s1 (centres unmarked) |
| > 5 | O=C(C1CC1)N1CCc2[nH]cnc2C1c1nc2c(F)cccc2s1 (centres unmarked) [listing 1 of 2 here] |
| > 5 | O=C(CC1CC1)N1CCc2[nH]cnc2C1c1nc2c(F)cccc2s1 (centres unmarked) [listing 1 of 2 here] |

| AC50 [µM] | SMILES |
| --- | --- |
| > 5 | N#Cc1ccn2ncc(C(=O)N3CCc4[nH]cnc4C3c3nc4ccc(Br)cc4[nH]3)c2c1 (centres unmarked) [listing 1 of 2 here] |
| > 5 | O=C(c1nccs1)N1CCc2[nH]cnc2C1c1nc2cc(F)ccc2s1 (centres unmarked) [listing 1 of 2 here] |
| > 5 | O=C(c1nccs1)N1CCc2nc[nH]c2C1c1nc2ccc(F)cc2s1 (centres unmarked) [listing 1 of 2 here] |
| > 5 | O=C(c1oc(-c2ccccn2)nc1C1CC1)N1CCCc2[nH]cnc2C1c1nc2ccccc2[nH]1 (centres unmarked) [listing 1 of 2 here] |
| > 5 | Cc1nnc(C(=O)N2CCc3[nH]cnc3C2c2nc3cc(Br)ccc3[nH]2)s1 (centres unmarked) |
| > 5 | O=C(c1cnn2c(Br)cccc12)N1CCc2[nH]cnc2C1c1nc2ccc(Br)cc2[nH]1 (centres unmarked) [listing 1 of 2 here] |
| > 5 | O=C(c1ncn2ccccc12)N1CCc2[nH]cnc2C1c1nc2ccc(Br)cc2[nH]1 (centres unmarked) [listing 1 of 2 here] |
| > 5 | O=C(c1cnn2cc(Cl)ccc12)N1CCc2[nH]cnc2C1c1nc2ccc(Br)cc2[nH]1 (centres unmarked) |
| > 5 | O=C(c1cnn2ccc(F)cc12)N1CCc2[nH]cnc2C1c1nc2ccc(Br)cc2[nH]1 (centres unmarked) [listing 1 of 2 here] |
| > 5 | O=C(c1cnn2ccc(Cl)cc12)N1CCc2[nH]cnc2C1c1nc2ccc(Cl)cc2[nH]1 (centres unmarked) [listing 1 of 2 here] |
| > 5 | Cc1ccc2c(C(=O)N3CCc4[nH]cnc4C3c3nc4ccc(Cl)cc4[nH]3)cnn2c1 (centres unmarked) [listing 1 of 2 here] |
| > 5 | COc1ccn2ncc(C(=O)N3CCc4[nH]cnc4C3c3nc4ccc(Cl)cc4[nH]3)c2c1 (centres unmarked) [listing 1 of 2 here] |
| > 5 | O=C(c1cnn2ccccc12)N1CCc2[nH]cnc2C1c1nc2ccc(F)cc2[nH]1 (centres unmarked) [listing 1 of 2 here] |
| > 5 | O=C(c1ccon1)N1CCc2[nH]cnc2C1c1nc2ccc(F)cc2[nH]1 (centres unmarked) [listing 1 of 2 here] |
| > 5 | O=C(c1nccs1)N1CCc2[nH]cnc2C1c1nc2cccc(F)c2[nH]1 (centres unmarked) [listing 1 of 2 here] |
| > 5 | O=C(c1cnn2c(Br)cccc12)N1CCc2[nH]cnc2C1c1nc2ccc(Cl)cc2[nH]1 (centres unmarked) [listing 1 of 2 here] |
| > 5 | O=C(c1nc2ccccc2s1)N1CCc2[nH]cnc2C1c1nc2ccc(F)cc2[nH]1 (centres unmarked) [listing 1 of 2 here] |
| 1 to 5 | O=C(Cc1nncs1)N1CCc2[nH]cnc2C1c1nc2ccccc2s1 (centres unmarked) [listing 2 of 2 here] |
| 1 to 5 | O=C(CCc1nccs1)N1CCc2[nH]cnc2C1c1nc2c(Br)cccc2s1 (centres unmarked) |
| 1 to 5 | O=C(CCc1nccs1)N1CCc2nc[nH]c2C1c1nc2c(Cl)cccc2s1 (centres unmarked) |
| 1 to 5 | Cc1nnc(CCC(=O)N2CCc3[nH]cnc3C2c2nc3c(F)cccc3s2)s1 (centres unmarked) [listing 2 of 2 here] |
| 1 to 5 | Cc1nnc(CCC(=O)N2CCc3[nH]cnc3C2c2nc3cc(F)ccc3s2)s1 (centres unmarked) [listing 2 of 2 here] |
| 1 to 5 | O=C(CCc1nccs1)N1CCc2[nH]cnc2C1c1nc2cc(F)ccc2s1 (centres unmarked) [listing 2 of 2 here] |
| 1 to 5 | CC(C)(C)CCC(=O)N1CCc2[nH]cnc2C1c1nc2cc(F)ccc2s1 (centres unmarked) |

| AC50 [µM] | SMILES |
| --- | --- |
| 1 to 5 | O=C(Cc1nccs1)N1CCc2[nH]cnc2C1c1nc2cc(F)ccc2s1 (centres unmarked) [listing 2 of 2 here] |
| 1 to 5 | O=C(CCc1nccs1)N1CCc2[nH]cnc2C1c1nc2ccc(Cl)cc2s1 (centres unmarked) [listing 2 of 2 here] |
| > 5 | Cc1nnc(CCC(=O)N2CCc3[nH]cnc3C2c2nc3ccc(F)cc3[nH]2)s1 (centres unmarked) |
| 1 to 5 | O=C(Cc1nccs1)N1CCc2[nH]cnc2C1c1nc2ccc(F)cc2[nH]1 (centres unmarked) [listing 2 of 2 here] |
| 1 to 5 | O=C(Cc1nc(C(F)(F)F)cs1)N1CCc2[nH]cnc2C1c1nc2ccc(F)cc2[nH]1 (centres unmarked) [listing 2 of 2 here] |
| 1 to 5 | CC(C)(C)CCC(=O)N1CCc2[nH]cnc2C1c1nc2ccc(F)cc2s1 (centres unmarked) |
| 1 to 5 | Cc1nnc(CCC(=O)N2CCc3nc[nH]c3C2c2nc3ccc(F)cc3s2)s1 (centres unmarked) |
| 1 to 5 | Cc1nnc(CCC(=O)N2CCc3[nH]cnc3C2c2nc3cccc(F)c3s2)s1 (centres unmarked) [listing 2 of 2 here] |
| 1 to 5 | O=C(c1nc2ccc(F)cc2s1)N1CCc2[nH]cnc2C1c1nc2ccccc2s1 (centres unmarked) [listing 2 of 2 here] |
| 1 to 5 | O=C(c1ccon1)N1CCc2[nH]cnc2C1c1nc2ccccc2s1 (centres unmarked) [listing 2 of 2 here] |
| 1 to 5 | O=C(c1ccsn1)N1CCc2[nH]cnc2C1c1nc2ccccc2s1 (centres unmarked) [listing 2 of 2 here] |
| 1 to 5 | O=C(c1nc2ccccc2s1)N1CCc2[nH]cnc2C1c1nc2c(F)cccc2s1 (centres unmarked) [listing 2 of 2 here] |
| 1 to 5 | O=C(c1nc2ccccc2s1)N1CCc2[nH]cnc2C1c1nc2ccc(F)cc2s1 (centres unmarked) |
| 1 to 5 | O=C(c1nc2ccccc2s1)N1CCc2[nH]cnc2C1c1nc2cc(F)ccc2s1 (centres unmarked) [listing 2 of 2 here] |
| 1 to 5 | O=C(c1ncco1)N1CCc2[nH]cnc2C1c1nc2ccccc2s1 (centres unmarked) [listing 2 of 2 here] |
| 1 to 5 | O=C(c1cnn2cccc(F)c12)N1CCc2[nH]cnc2C1c1nc2ccccc2s1 (centres unmarked) [listing 2 of 2 here] |
| 1 to 5 | COc1ccc2c(C(=O)N3CCc4[nH]cnc4C3c3nc4ccccc4s3)cnn2c1 (centres unmarked) [listing 2 of 2 here] |
| 1 to 5 | O=C(C1CC1)N1CCc2[nH]cnc2C1c1nc2c(F)cccc2s1 (centres unmarked) [listing 2 of 2 here] |
| > 5 | Clc1csc(CN2CCc3[nH]cnc3C2c2nc3ccccc3[nH]2)n1 (centres unmarked) |
| > 5 | Cc1nnc(CN2CCc3[nH]cnc3C2c2nc3ccccc3[nH]2)s1 (centres unmarked) |
| > 5 | Clc1ccc2nc(C3c4nc[nH]c4CCN3Cc3nccs3)[nH]c2c1 (centres unmarked) |
| 1 to 5 | O=C(CC1CC1)N1CCc2[nH]cnc2C1c1nc2c(F)cccc2s1 (centres unmarked) [listing 2 of 2 here] |
| 1 to 5 | N#Cc1ccn2ncc(C(=O)N3CCc4[nH]cnc4C3c3nc4ccc(Br)cc4[nH]3)c2c1 (centres unmarked) [listing 2 of 2 here] |
| > 5 | N#Cc1ccn2ncc(C(=O)N3CCc4[nH]cnc4C3c3nc4ccc(Cl)cc4[nH]3)c2c1 (centres unmarked) |

| AC50 [µM] | SMILES |
| --- | --- |
| > 5 | Nc1nnc(CCC(=O)N2CCc3[nH]cnc3C2c2nc3ccccc3s2)s1 (centres unmarked) |
| > 5 | c1ccc2[nH]c(C3c4nc[nH]c4CCN3Cc3cncs3)nc2c1 (centres unmarked) |
| 1 to 5 | O=C(c1nccs1)N1CCc2[nH]cnc2C1c1nc2cc(F)ccc2s1 (centres unmarked) [listing 2 of 2 here] |
| 1 to 5 | O=C(c1nccs1)N1CCc2nc[nH]c2C1c1nc2ccc(F)cc2s1 (centres unmarked) [listing 2 of 2 here] |
| 1 to 5 | O=C(c1cnn2c(Br)cccc12)N1CCc2[nH]cnc2C1c1nc2ccccc2[nH]1 (centres unmarked) |
| 1 to 5 | O=C(c1nnc(-c2ccccn2)o1)N1CCc2[nH]cnc2C1c1nc2ccccc2[nH]1 (centres unmarked) |
| 1 to 5 | Cc1nnc(C(=O)N2CCc3[nH]cnc3C2c2nc3ccccc3[nH]2)o1 (centres unmarked) |
| 1 to 5 | O=C(c1oc(-c2ccccn2)nc1C1CC1)N1CCCc2[nH]cnc2C1c1nc2ccccc2[nH]1 (centres unmarked) [listing 2 of 2 here] |
| > 5 | O=C(c1nnc(-c2ccccn2)o1)N1CCCc2[nH]cnc2C1c1nc2ccccc2[nH]1 (centres unmarked) |
| 1 to 5 | O=C(c1ncn2ccccc12)N1CCc2[nH]cnc2C1c1nc2ccc(Br)cc2[nH]1 (centres unmarked) [listing 2 of 2 here] |
| > 5 | Cc1ccc2c(C(=O)N3CCc4[nH]cnc4C3c3nc4ccc(Br)cc4[nH]3)cnn2c1 (centres unmarked) |
| 1 to 5 | O=C(c1cnn2c(Br)cccc12)N1CCc2[nH]cnc2C1c1nc2ccc(Br)cc2[nH]1 (centres unmarked) [listing 2 of 2 here] |
| > 5 | O=C(c1cnn2cccc(F)c12)N1CCc2[nH]cnc2C1c1nc2ccc(Br)cc2[nH]1 (centres unmarked) |
| 1 to 5 | O=C(c1cnn2ccc(F)cc12)N1CCc2[nH]cnc2C1c1nc2ccc(Br)cc2[nH]1 (centres unmarked) [listing 2 of 2 here] |
| 1 to 5 | Cc1ccc2c(C(=O)N3CCc4[nH]cnc4C3c3nc4ccc(Cl)cc4[nH]3)cnn2c1 (centres unmarked) [listing 2 of 2 here] |
| 1 to 5 | COc1ccn2ncc(C(=O)N3CCc4[nH]cnc4C3c3nc4ccc(Cl)cc4[nH]3)c2c1 (centres unmarked) [listing 2 of 2 here] |
| > 5 | O=C(c1cnn2cc(Cl)ccc12)N1CCc2[nH]cnc2C1c1nc2ccc(Cl)cc2[nH]1 (centres unmarked) |
| 1 to 5 | O=C(c1cnn2ccc(Cl)cc12)N1CCc2[nH]cnc2C1c1nc2ccc(Cl)cc2[nH]1 (centres unmarked) [listing 2 of 2 here] |
| 1 to 5 | O=C(c1cnn2ccccc12)N1CCc2[nH]cnc2C1c1nc2ccc(F)cc2[nH]1 (centres unmarked) [listing 2 of 2 here] |
| 1 to 5 | O=C(c1ccon1)N1CCc2[nH]cnc2C1c1nc2ccc(F)cc2[nH]1 (centres unmarked) [listing 2 of 2 here] |
| 1 to 5 | O=C(c1nccs1)N1CCc2[nH]cnc2C1c1nc2cccc(F)c2[nH]1 (centres unmarked) [listing 2 of 2 here] |
| 1 to 5 | O=C(c1cnn2c(Br)cccc12)N1CCc2[nH]cnc2C1c1nc2ccc(Cl)cc2[nH]1 (centres unmarked) [listing 2 of 2 here] |
| 1 to 5 | O=C(c1nc2ccccc2s1)N1CCc2[nH]cnc2C1c1nc2ccc(F)cc2[nH]1 (centres unmarked) [listing 2 of 2 here] |
